The values that follow come from ChEMBL document CHEMBL1641470, “New azoles with antifungal activity: Design, synthesis, and molecular docking” (2011).

Holding throughout (format): functional
For one experiment, the system named is Candida parapsilosis. As to the kind of experiment: Antifungal activity against Candida parapsilosis by broth microdilution method. The conditions noted are these: Lodderomyces parapsilosis.
A further experiment deals with Nannizzia gypsea. In words: Antifungal activity against Microsporum gypseum by broth microdilution method.
A further experiment concerns Candida albicans. As to the kind of experiment: Antifungal activity against Candida albicans ATCC Y0109 after 24 hrs by broth microdilution method. (Broth dilution looks for growth in wells or tubes with falling amounts of substance.)
A further experiment relates to Cryptococcus neoformans. As to the kind of experiment: Antifungal activity against Cryptococcus neoformans ATCC BLS108 after 72 hrs by broth microdilution method.
A further experiment deals with Aspergillus fumigatus. As to the kind of experiment: Antifungal activity against Aspergillus fumigatus by broth microdilution method.
The subject of a further experiment is Trichophyton rubrum. As to the kind of experiment: Antifungal activity against Trichophyton rubrum by broth microdilution method.
Another experiment deals with Fusarium. In words: Antifungal activity against Fusarium by broth microdilution method.
The test system of another experiment is Candida tropicalis. In words: Antifungal activity against Candida tropicalis by broth microdilution method.

Converted amounts (≈) assume the structure as drawn. Where only a bound is given, the exact number is not on record here.

The MIC80 is the lowest concentration that inhibits either 80% of growth or 80% of the strains tested, depending on the study. Higher therefore signals lower susceptibility. Consider `O=C(/C=C/c1cccc(F)c1)Nc1ccc(N2CCN(CC(O)(Cn3cncn3)c3ccc(F)cc3F)CC2)cc1` (stereo unspecified), for which the MIC80 is 0.25 µg/mL (≈ 0.444 µM) against Candida parapsilosis; 0.0156 µg/mL (≈ 0.0277 µM) against Nannizzia gypsea; 0.0156 µg/mL (≈ 0.0277 µM) against Candida albicans; 0.25 µg/mL (≈ 0.444 µM) against Cryptococcus neoformans; 4 µg/mL (≈ 7.11 µM) in the experiment with Aspergillus fumigatus; 0.25 µg/mL (≈ 0.444 µM) against Trichophyton rubrum. Further, the MIC80 in the experiment with Fusarium amounted to 1 µg/mL (≈ 1.78 µM); against Candida tropicalis, 0.25 µg/mL (≈ 0.444 µM).
For `COc1ccc(/C=C/C(=O)Nc2ccc(N3CCN(CC(O)(Cn4cncn4)c4ccc(F)cc4F)CC3)c(F)c2)cc1OC` (stereo unspecified), the MIC80 is 0.25 µg/mL (≈ 0.402 µM) in the experiment on Candida parapsilosis; 0.25 µg/mL (≈ 0.402 µM) with Nannizzia gypsea; 0.25 µg/mL (≈ 0.402 µM) in the experiment on Candida albicans; 1 µg/mL (≈ 1.61 µM) with Cryptococcus neoformans; more than 64 µg/mL with Aspergillus fumigatus; 4 µg/mL (≈ 6.42 µM) against Trichophyton rubrum. Besides, the MIC80 in the experiment with Fusarium turned out to be 4 µg/mL (≈ 6.42 µM); in the experiment on Candida tropicalis, 1 µg/mL (≈ 1.61 µM).
As for `O=C(/C=C/c1cccc(F)c1)Nc1ccc(N2CCN(CC(O)(Cn3cncn3)c3ccc(F)cc3F)CC2)c(F)c1` (stereo unspecified), the MIC80 in the experiment on Candida parapsilosis stood at 0.0156 µg/mL (≈ 0.0269 µM); against Nannizzia gypsea it was 0.25 µg/mL (≈ 0.431 µM); in the experiment with Candida albicans it was 0.25 µg/mL (≈ 0.431 µM); in the experiment on Cryptococcus neoformans, 0.25 µg/mL (≈ 0.431 µM); against Aspergillus fumigatus it was 4 µg/mL (≈ 6.89 µM); in the experiment on Trichophyton rubrum it was 0.25 µg/mL (≈ 0.431 µM). The MIC80 against Fusarium and against Candida tropicalis was 0.25 µg/mL (≈ 0.431 µM) each time.
With `O=C(/C=C/c1ccc(Cl)cc1)Nc1ccc(N2CCN(CC(O)(Cn3cncn3)c3ccc(F)cc3F)CC2)cc1` (stereo unspecified), the MIC80 against Candida parapsilosis was 0.25 µg/mL (≈ 0.432 µM); with Nannizzia gypsea, 0.25 µg/mL (≈ 0.432 µM); with Candida albicans it was 0.0625 µg/mL (≈ 0.108 µM); with Cryptococcus neoformans, 1 µg/mL (≈ 1.73 µM); with Aspergillus fumigatus, 64 µg/mL (≈ 111 µM); in the experiment on Trichophyton rubrum, 0.25 µg/mL (≈ 0.432 µM). In addition, the MIC80 against Fusarium was determined as 4 µg/mL (≈ 6.91 µM); in the experiment on Candida tropicalis it was 0.25 µg/mL (≈ 0.432 µM).
On to `O=C(/C=C/c1ccccc1)Nc1ccc(N2CCN(CC(O)(Cn3cncn3)c3ccc(F)cc3F)CC2)c(F)c1` (stereo unspecified), for which the MIC80 in the experiment on Candida parapsilosis was found to be 0.0625 µg/mL (≈ 0.111 µM); with Nannizzia gypsea, 0.25 µg/mL (≈ 0.444 µM); with Candida albicans it was 0.25 µg/mL (≈ 0.444 µM); in the experiment on Cryptococcus neoformans, 0.0156 µg/mL (≈ 0.0277 µM); with Aspergillus fumigatus, 1 µg/mL (≈ 1.78 µM); with Trichophyton rubrum, 0.0625 µg/mL (≈ 0.111 µM). Besides, the MIC80 with Fusarium worked out at 0.25 µg/mL (≈ 0.444 µM); in the experiment on Candida tropicalis, 0.0625 µg/mL (≈ 0.111 µM).
For the compound `Cc1ccc(/C=C/C(=O)Nc2ccc(N3CCN(CC(O)(Cn4cncn4)c4ccc(F)cc4F)CC3)cc2)cc1` (stereo unspecified), the MIC80 against Candida parapsilosis came out at 0.25 µg/mL (≈ 0.448 µM); with Nannizzia gypsea, 0.25 µg/mL (≈ 0.448 µM); in the experiment on Candida albicans, 0.0625 µg/mL (≈ 0.112 µM); against Cryptococcus neoformans, 1 µg/mL (≈ 1.79 µM); against Aspergillus fumigatus it was 64 µg/mL (≈ 115 µM); in the experiment on Trichophyton rubrum, 0.0156 µg/mL (≈ 0.0279 µM). For the same compound, the results for the MIC80 in the experiment with Fusarium and against Candida tropicalis were 16 µg/mL (≈ 28.6 µM) and 0.25 µg/mL (≈ 0.448 µM), respectively.
`O=C(/C=C/c1cccc(Br)c1)Nc1ccc(N2CCN(CC(O)(Cn3cncn3)c3ccc(F)cc3F)CC2)cc1` (stereo unspecified): the MIC80 with Candida parapsilosis worked out at 0.25 µg/mL (≈ 0.401 µM); against Nannizzia gypsea, 1 µg/mL (≈ 1.6 µM); in the experiment with Candida albicans, 0.0625 µg/mL (≈ 0.1 µM); against Cryptococcus neoformans it was 1 µg/mL (≈ 1.6 µM); against Aspergillus fumigatus, 16 µg/mL (≈ 25.7 µM); in the experiment with Trichophyton rubrum, 0.0625 µg/mL (≈ 0.1 µM). The MIC80 was 1 µg/mL (≈ 1.6 µM) in the experiment on Fusarium and 0.25 µg/mL (≈ 0.401 µM) with Candida tropicalis.
Regarding `O=C(/C=C/c1cccc([N+](=O)[O-])c1)Nc1ccc(N2CCN(CC(O)(Cn3cncn3)c3ccc(F)cc3F)CC2)cc1` (stereo unspecified), the MIC80 in the experiment with Candida parapsilosis stood at 0.0625 µg/mL (≈ 0.106 µM); against Nannizzia gypsea it was 0.25 µg/mL (≈ 0.424 µM); with Candida albicans, 0.0156 µg/mL (≈ 0.0265 µM); with Cryptococcus neoformans, 0.25 µg/mL (≈ 0.424 µM); in the experiment with Aspergillus fumigatus, 4 µg/mL (≈ 6.78 µM); with Trichophyton rubrum, 0.0625 µg/mL (≈ 0.106 µM). In addition, the values for the MIC80 in the experiment with Fusarium and in the experiment on Candida tropicalis were 1 µg/mL (≈ 1.7 µM) and 0.25 µg/mL (≈ 0.424 µM), respectively.
Take `O=C(/C=C/c1ccccc1F)Nc1ccc(N2CCN(CC(O)(Cn3cncn3)c3ccc(F)cc3F)CC2)c(F)c1` (stereo unspecified): the MIC80 against Candida parapsilosis was 0.0625 µg/mL (≈ 0.108 µM); in the experiment on Nannizzia gypsea it was 0.25 µg/mL (≈ 0.431 µM); in the experiment with Candida albicans, 0.25 µg/mL (≈ 0.431 µM); against Cryptococcus neoformans, 0.25 µg/mL (≈ 0.431 µM); in the experiment on Aspergillus fumigatus it was 4 µg/mL (≈ 6.89 µM); with Trichophyton rubrum it was 0.0625 µg/mL (≈ 0.108 µM). The MIC80 in the experiment on Fusarium amounted to 1 µg/mL (≈ 1.72 µM); against Candida tropicalis it was 0.0625 µg/mL (≈ 0.108 µM).
For `O=C(/C=C/c1ccccc1[N+](=O)[O-])Nc1ccc(N2CCN(CC(O)(Cn3cncn3)c3ccc(F)cc3F)CC2)cc1` (stereo unspecified), the MIC80 in the experiment with Candida parapsilosis was 0.25 µg/mL (≈ 0.424 µM); against Nannizzia gypsea it was 0.25 µg/mL (≈ 0.424 µM); against Candida albicans, 0.0156 µg/mL (≈ 0.0265 µM); in the experiment on Cryptococcus neoformans, 1 µg/mL (≈ 1.7 µM); in the experiment on Aspergillus fumigatus, more than 64 µg/mL; with Trichophyton rubrum it was 0.0625 µg/mL (≈ 0.106 µM). Moreover, the MIC80 worked out at 4 µg/mL (≈ 6.78 µM) in the experiment with Fusarium and 0.0625 µg/mL (≈ 0.106 µM) in the experiment with Candida tropicalis.
Turning to `C[C@@H](c1ncncc1F)[C@](O)(Cn1cncn1)c1ccc(F)cc1F` [VORICONAZOLE], the MIC80 against Candida parapsilosis was 1 µg/mL (≈ 2.86 µM); with Nannizzia gypsea it was 0.0039 µg/mL (≈ 0.0112 µM); against Candida albicans, 0.0152 µg/mL (≈ 0.0435 µM); in the experiment on Cryptococcus neoformans, 0.0152 µg/mL (≈ 0.0435 µM); against Aspergillus fumigatus, more than 64 µg/mL; in the experiment on Trichophyton rubrum, 0.0039 µg/mL (≈ 0.0112 µM). The MIC80 with Fusarium amounted to 0.0152 µg/mL (≈ 0.0435 µM); in the experiment on Candida tropicalis it was 0.25 µg/mL (≈ 0.716 µM).
Turning to `CCC(C)n1ncn(-c2ccc(N3CCN(c4ccc(OCC5COC(Cn6cncn6)(c6ccc(Cl)cc6Cl)O5)cc4)CC3)cc2)c1=O` (stereo unspecified) [ITRACONAZOLE], the MIC80 came to 0.25 µg/mL (≈ 0.354 µM) against Candida parapsilosis; 0.0152 µg/mL (≈ 0.0215 µM) with Nannizzia gypsea; 1 µg/mL (≈ 1.42 µM) in the experiment on Candida albicans; 1 µg/mL (≈ 1.42 µM) in the experiment with Cryptococcus neoformans; 1 µg/mL (≈ 1.42 µM) in the experiment with Aspergillus fumigatus; 0.0152 µg/mL (≈ 0.0215 µM) with Trichophyton rubrum. For the same compound, the MIC80 against Fusarium and with Candida tropicalis was 0.25 µg/mL (≈ 0.354 µM) each time.
Turning to `O=C(/C=C/c1ccccc1Cl)Nc1ccc(N2CCN(CC(O)(Cn3cncn3)c3ccc(F)cc3F)CC2)cc1` (stereo unspecified), the MIC80 against Candida parapsilosis turned out to be 0.25 µg/mL (≈ 0.432 µM); in the experiment with Nannizzia gypsea, 0.0156 µg/mL (≈ 0.0269 µM); against Candida albicans, 0.0039 µg/mL (≈ 0.00674 µM); against Cryptococcus neoformans, 0.25 µg/mL (≈ 0.432 µM); in the experiment on Aspergillus fumigatus it was 4 µg/mL (≈ 6.91 µM); against Trichophyton rubrum, 0.0156 µg/mL (≈ 0.0269 µM). The MIC80 with Fusarium amounted to 1 µg/mL (≈ 1.73 µM); with Candida tropicalis it was 0.0625 µg/mL (≈ 0.108 µM).
Regarding `O=C(/C=C/c1ccc(Br)cc1)Nc1ccc(N2CCN(CC(O)(Cn3cncn3)c3ccc(F)cc3F)CC2)c(F)c1` (stereo unspecified), the MIC80 against Candida parapsilosis is 0.0625 µg/mL (≈ 0.0974 µM); against Nannizzia gypsea it was 0.0625 µg/mL (≈ 0.0974 µM); in the experiment on Candida albicans it was 0.25 µg/mL (≈ 0.39 µM); in the experiment on Cryptococcus neoformans it was 0.0156 µg/mL (≈ 0.0243 µM); in the experiment with Aspergillus fumigatus it was 1 µg/mL (≈ 1.56 µM); with Trichophyton rubrum, 0.0625 µg/mL (≈ 0.0974 µM). Further, the values for the MIC80 in the experiment with Fusarium and against Candida tropicalis were 1 µg/mL (≈ 1.56 µM) and 0.0156 µg/mL (≈ 0.0243 µM), respectively.
Regarding `COc1ccc(OC)c(/C=C/C(=O)Nc2ccc(N3CCN(CC(O)(Cn4cncn4)c4ccc(F)cc4F)CC3)cc2)c1` (stereo unspecified), the MIC80 was 0.25 µg/mL (≈ 0.413 µM) against Candida parapsilosis; 1 µg/mL (≈ 1.65 µM) against Nannizzia gypsea; 0.0156 µg/mL (≈ 0.0258 µM) in the experiment on Candida albicans; 0.25 µg/mL (≈ 0.413 µM) in the experiment with Cryptococcus neoformans; more than 64 µg/mL against Aspergillus fumigatus; 0.25 µg/mL (≈ 0.413 µM) against Trichophyton rubrum. Further, the MIC80 with Fusarium was 4 µg/mL (≈ 6.62 µM); in the experiment with Candida tropicalis, 0.0625 µg/mL (≈ 0.103 µM).
For the compound `O=C(/C=C/c1ccc(F)cc1)Nc1ccc(N2CCN(CC(O)(Cn3cncn3)c3ccc(F)cc3F)CC2)c(F)c1` (stereo unspecified), the MIC80 in the experiment on Candida parapsilosis amounted to 0.0156 µg/mL (≈ 0.0269 µM); in the experiment with Nannizzia gypsea it was 0.25 µg/mL (≈ 0.431 µM); in the experiment on Candida albicans, 0.25 µg/mL (≈ 0.431 µM); in the experiment on Cryptococcus neoformans it was 0.25 µg/mL (≈ 0.431 µM); in the experiment on Aspergillus fumigatus it was 1 µg/mL (≈ 1.72 µM); against Trichophyton rubrum it was 0.0625 µg/mL (≈ 0.108 µM). Also, the MIC80 in the experiment on Fusarium stood at 0.25 µg/mL (≈ 0.431 µM); against Candida tropicalis, 0.0156 µg/mL (≈ 0.0269 µM).
Regarding `OC(Cn1cncn1)(Cn1cncn1)c1ccc(F)cc1F` [FLUCONAZOLE], the MIC80 with Candida parapsilosis came out at 1 µg/mL (≈ 3.27 µM); against Nannizzia gypsea, 0.25 µg/mL (≈ 0.816 µM); in the experiment with Candida albicans, 4 µg/mL (≈ 13.1 µM); in the experiment with Cryptococcus neoformans, 1 µg/mL (≈ 3.27 µM); against Aspergillus fumigatus it was 64 µg/mL (≈ 209 µM); against Trichophyton rubrum, 0.25 µg/mL (≈ 0.816 µM). The MIC80 in the experiment with Fusarium was 16 µg/mL (≈ 52.2 µM); against Candida tropicalis, 1 µg/mL (≈ 3.27 µM).
